Data from the RepoRT retention time repository (doi:10.1016/j.foodchem.2021.129757).
Blank lines part the entries; values can stand above or below the compound they belong to.

How the values were obtained:
Details in all cases: stereoisomer not certain
[1] = RP, 150 × 2.1 mm, 2.6 µm, 40 °C, 0.35 mL/min, estimated dead time 0.94 min; A: water + 0.1% formic acid, pH 3; B: acetonitrile + 0.1% formic acid, pH 3; gradient (min/%B) 0/0 1/0 12.5/100 14/100 14.2/0 15/0
[2] = RP, 150 × 2.1 mm, 2.6 µm, 40 °C, 0.35 mL/min, estimated dead time 0.94 min; A: water + 0.1% formic acid, pH 3; B: acetonitrile + 0.1% formic acid, pH 3; gradient (min/%B) 0/0 1/5 7/45 8.5/80 10.5/80 11/5 12/5
[3] = RP, Phenomenex Kinetex EVO C18, 100 × 2.1 mm, 2.6 µm, 40 °C, 0.4 mL/min, estimated dead time 0.55 min; A: water + 0.2% formic acid; B: acetonitrile + 0.2% formic acid; gradient (min/%B) 0/5 0.5/5 7/95 8/95 8.5/5 12/5
[4] = RP, Merck Supelco SUPELCOSIL LC-C18, 250 × 4.6 mm, 5 µm, 40 °C, 1 mL/min, estimated dead time 2.6 min; A: water + 0.1% trifluoroacetic acid, pH 2; B: acetonitrile + 0.1% trifluoroacetic acid, pH 2; gradient (min/%B) 0/5 45/35 47/75 49/35 50/5
[5] = RP, Waters Atlantis T3, 100 × 2.1 mm, 3 µm, 40 °C, 0.3 mL/min, estimated dead time 0.73 min; A: water + 0.1% trifluoroacetic acid, pH 2; B: acetonitrile + 0.1% trifluoroacetic acid, pH 2; gradient (min/%B) 0/10 1/10 6/40 7/50 8/50 14/70 16/80 20/10 25/10
[6] = Other, Phenomenex Kinetex PFP, 100 × 4.6 mm, 5 µm, 45 °C, 0.6 mL/min, estimated dead time 1.8 min; A: water + 0.1% trifluoroacetic acid, pH 2; B: methanol; gradient (min/%B) 0/40 20/72 21/40
[7] = RP, Merck LiChrospher RP-18, 250 × 4 mm, 5 µm, 35 °C, 0.3 mL/min, estimated dead time 6.7 min; A: water + 0.5% formic acid; B: acetonitrile + 0.5% formic acid; gradient (min/%B) 0/5 10/5 30/15 45/20 65/20 95/54 110/63 115/5 135/5
[8] = RP, Waters ACQUITY UPLC BEH Shield RP18, 150 × 2.1 mm, 1.7 µm, 40 °C, 0.4 mL/min, estimated dead time 0.83 min; A: water + 0.1% formic acid, pH 3; B: acetonitrile + 0.1% formic acid, pH 3; gradient (min/%B) 0/0 30/50 31/100 37/100 37.1/0
[9] = RP, Agilent InfinityLab Poroshell 120 EC-C18, 100 × 3 mm, 2.7 µm, 25 °C, 0.4 mL/min, estimated dead time 1.1 min; A: water + 0.1% formic acid, pH 3; B: acetonitrile + 0.1% formic acid, pH 3; gradient (min/%B) 0/5 10/25 20/40 24/90 25/90 26/5 30/5
[10] = RP, Waters ACQUITY UPLC HSS T3, 100 × 2.1 mm, 50 °C; A: water + 0.1% formic acid, pH 3; B: 30% methanol + 70% acetonitrile + 0.1% formic acid, pH 3; gradient (min/%B) 0/5 1/8 2/15 3/40 4/70 4.5/100 5/100 6.4/100 6.6/5 6.8/5 7/5
[11] = RP, Agilent ZORBAX Eclipse XDB-C18, 100 × 2.1 mm, 1.8 µm, 50 °C, 0.4 mL/min, estimated dead time 0.55 min; A: water + 0.1% formic acid, pH 3; B: methanol + 0.1% formic acid, pH 3; gradient (min/%B) 0/2 10/100 14.5/100 14.51/2 16.5/2
[12] = RP, Waters ACQUITY UPLC BEH C18, 100 × 2.1 mm, 1.7 µm, 65 °C, 0.4 mL/min, estimated dead time 0.55 min; A: water + 0.1% formic acid, pH 3; B: 80% acetonitrile + 20% acetone + 0.1% formic acid, pH 3; gradient (min/%B) 0/0 5/100 5.5/0 6/0
[13] = RP, Agilent ZORBAX RRHD Eclipse Plus C18, 50 × 2.1 mm, 1.8 µm, 30 °C, 0.4 mL/min, estimated dead time 0.28 min; A: water + 0.1% formic acid, pH 3; B: acetonitrile + 0.1% formic acid, pH 3; gradient (min/%B) 0/1 5/10 8/25 9.1/99 10/99 12/1
[14] = RP, Phenomenex Synergi Hydro-RP, 250 × 2 mm, 4 µm, 25 °C, 0.2 mL/min, estimated dead time 2.5 min; A: water + 0.1% formic acid, pH 3; B: acetonitrile + 0.1% formic acid, pH 3; gradient (min/%B) 0/0.5 7/0.5 12/12.5 25/16.3 47/35 48/65 50/65 50.1/0.5
[15] = RP, Waters ACQUITY UPLC HSS T3, 100 × 2.1 mm, 1.8 µm, 30 °C, 0.4 mL/min, estimated dead time 0.55 min; A: water + 0.1% formic acid, pH 3; B: acetonitrile + 0.1% formic acid, pH 3; gradient (min/%B) 0/0 2/0 15/100 22/100 22.1/0 26/0
[16] = RP, Phenomenex Luna C18, 150 × 4.6 mm, 3 µm, 25 °C, 0.5 mL/min, estimated dead time 3.2 min; A: water + 0.1% formic acid, pH 3; B: acetonitrile + 0.1% formic acid, pH 3; gradient (min/%B) 0/0 30/30 35/40 50/80 52/80 60/0 65/0
[17] = RP, Waters ACQUITY UPLC BEH Shield RP18, 100 × 2.1 mm, 1.7 µm, 30 °C, 0.6 mL/min, estimated dead time 0.37 min; A: water + 0.1% formic acid, pH 3; B: acetonitrile + 0.1% formic acid, pH 3; gradient (min/%B) 0/0 2/0 7/10 22/95 22.1/0 26/0
[18] = RP, Agilent ZORBAX RRHD Eclipse Plus C18, 50 × 2.1 mm, 1.8 µm, 30 °C, 0.4 mL/min, estimated dead time 0.28 min; A: water + 0.1% formic acid, pH 3; B: acetonitrile + 0.1% formic acid, pH 3; gradient (min/%B) 0/1 5/10 8/25 9.1/99 10/99 12/99

Compound: O=C(C=Cc1ccc(O)c(O)c1)OC1CC(OC(=O)C=Cc2ccc(O)c(O)c2)(C(=O)O)CC(O)C1O (stereo unspecified) [1,3-dicaffeoylquinic acid]
LC retention time [4]: 19.1 min

Compound: O=C(O)c1ccc(O)c(O)c1O [2,3,4-Trihydroxybenzoic acid]
LC retention time [6]: 4.34 min
LC retention time [4]: 8.9 min

Compound: O=c1cc(-c2ccc(O)cc2)oc2cc(O)cc(O)c12 [Apigenin]
LC retention time [7]: 97 min
LC retention time [8]: 23.6 min
LC retention time [4]: 43.2 min
LC retention time [9]: 16.3 min
LC retention time [5]: 10.1 min

Compound: O=c1cc(-c2ccccc2)oc2cc(O)cc(O)c12 [Chrysin]
LC retention time [4]: 39.4 min
LC retention time [9]: 22.2 min

Compound: O=C(O)C=Cc1ccccc1 [Cinnamic acid-trans]
LC retention time [10]: 2.74 min
LC retention time [7]: 92.9 min
LC retention time [11]: 6.27 min
LC retention time [12]: 2.79 min
LC retention time [8]: 16.2 min
LC retention time [13]: 9.09 min
LC retention time [4]: 35.6 min
LC retention time [14]: 46.7 min

Compound: O=C(C=Cc1ccc(O)c(O)c1)OC1C(O)CC(O)(C(=O)O)CC1O (stereo unspecified) [Cryptochlorogenic acid]
LC retention time [1]: 4.63 min
LC retention time [2]: 4.45 min
LC retention time [4]: 14.1 min

Compound: OCC1OC(Oc2cc3c(OC4OC(CO)C(O)C(O)C4O)cc(O)cc3[o+]c2-c2ccc(O)c(O)c2)C(O)C(O)C1O (stereo unspecified) [Cyanidin-3,5-O-diglucoside]
LC retention time [4]: 16.4 min

Compound: O=c1c(-c2ccc(O)cc2)coc2cc(O)ccc12 [Daidzein]
LC retention time [15]: 10.7 min
LC retention time [12]: 2.53 min
LC retention time [8]: 17.9 min
LC retention time [4]: 34.6 min
LC retention time [9]: 12.9 min

Compound: O=c1oc2c(O)c(O)cc3c(=O)oc4c(O)c(O)cc1c4c23 [Ellagic acid]
LC retention time [16]: 14.2 min
LC retention time [7]: 60.3 min
LC retention time [12]: 1.91 min
LC retention time [17]: 13.1 min
LC retention time [4]: 24.8 min
LC retention time [9]: 8.97 min
LC retention time [5]: 7.94 min

Compound: O=c1c(O)c(-c2ccc(O)c(O)c2)oc2cc(O)ccc12 [Fisetin]
LC retention time [15]: 10.2 min
LC retention time [4]: 30.9 min

Compound: O=C(O)c1cc(O)ccc1O [Gentisic acid]
LC retention time [1]: 4.7 min
LC retention time [2]: 4.37 min
LC retention time [15]: 8.3 min
LC retention time [11]: 2.85 min
LC retention time [8]: 6.28 min
LC retention time [13]: 4.25 min
LC retention time [18]: 2.82 min
LC retention time [4]: 12.5 min
LC retention time [9]: 5.44 min
LC retention time [14]: 19.9 min

Compound: COc1cc(-c2[o+]c3cc(O)cc(O)c3cc2O)cc(OC)c1O [Malvidin]
LC retention time [6]: 14.3 min
LC retention time [4]: 35.9 min

Compound: OCC1OC(Oc2cc3c(O)cc(O)cc3[o+]c2-c2ccc(O)cc2)C(O)C(O)C1O (stereo unspecified) [Pelargonidin-3-O-glucoside]
LC retention time [4]: 23.4 min

Compound: CC1OC(OCC2OC(Oc3cc4c(O)cc(=O)cc-4oc3-c3ccc(O)cc3)C(O)C(O)C2O)C(O)C(O)C1O (stereo unspecified) [Pelargonidin-3-O-rutinoside]
LC retention time [4]: 24.3 min

Compound: COc1cc(C(=O)O)cc(OC)c1O [Syringic acid]
LC retention time [1]: 5.04 min
LC retention time [2]: 4.88 min
LC retention time [10]: 3.33 min
LC retention time [12]: 1.8 min
LC retention time [4]: 15.5 min
LC retention time [9]: 6.44 min
LC retention time [14]: 23.1 min
LC retention time [5]: 5.12 min

Compound: O=C(O)C=Cc1ccccc1O [o-Coumaric acid]
LC retention time [1]: 6.29 min
LC retention time [2]: 6.36 min
LC retention time [7]: 74.4 min
LC retention time [8]: 12.7 min
LC retention time [13]: 8.32 min
LC retention time [18]: 8.67 min
LC retention time [4]: 25.9 min
LC retention time [14]: 37.5 min

Second part, the compound after the results:

LC retention time [1]: 5.08 min
LC retention time [2]: 5.02 min
LC retention time [3]: 4.38 min
LC retention time [4]: 16.9 min
LC retention time [5]: 6.14 min
Compound: O=C(OC1Cc2c(O)cc(O)cc2OC1c1cc(O)c(O)c(O)c1)c1cc(O)c(O)c(O)c1 (single isomer, unassigned; (-)) [(-)-Epigallocatechin gallate]

LC retention time [6]: 8.44 min
LC retention time [4]: 25.1 min
Compound: O=c1cc2oc(-c3cc(O)c(O)c(O)c3)c(O)cc-2c(O)c1 [Delphinidin]

LC retention time [6]: 5.76 min
LC retention time [1]: 5.67 min
LC retention time [2]: 5.72 min
LC retention time [7]: 58.6 min
LC retention time [15]: 9.36 min
Compound: O=C(OC1Cc2c(O)cc(O)cc2OC1c1ccc(O)c(O)c1)c1cc(O)c(O)c(O)c1 (stereo unspecified) [Epicatechin gallate]

LC retention time [6]: 15.4 min
LC retention time [1]: 6.95 min
LC retention time [2]: 7.21 min
LC retention time [7]: 88.7 min
LC retention time [15]: 10.9 min
LC retention time [12]: 2.59 min
LC retention time [9]: 13.7 min
Compound: O=C1CC(c2ccc(O)c(O)c2)Oc2cc(O)cc(O)c21 (stereo unspecified) [Eriodictyol]

LC retention time [4]: 24.8 min
Compound: COc1cc(-c2[o+]c3cc(O)cc(O)c3cc2OC2OC(CO)C(O)C(O)C2O)ccc1O (stereo unspecified) [Peonidin-3-O-glucoside]

LC retention time [4]: 22.3 min
Compound: COc1cc(-c2[o+]c3cc(O)cc(O)c3cc2OC2OC(CO)C(O)C(O)C2O)cc(O)c1O (stereo unspecified) [Petunidin-3-O-glucoside]

LC retention time [3]: 4.92 min
LC retention time [8]: 13.7 min
LC retention time [13]: 7.9 min
LC retention time [18]: 8.38 min
LC retention time [4]: 26.2 min
Compound: O=C(O)C1OC(Oc2c(-c3ccc(O)c(O)c3)oc3cc(O)cc(O)c3c2=O)C(O)C(O)C1O (stereo unspecified) [Quercetin-3-O-glucuronide]

LC retention time [1]: 6.01 min
LC retention time [2]: 6.17 min
LC retention time [4]: 29.4 min
LC retention time [14]: 38.3 min
Compound: CC1OC(Oc2c(-c3ccc(O)c(O)c3)oc3cc(O)cc(O)c3c2=O)C(O)C(O)C1O (stereo unspecified) [Quercitrin]
